Results taken from PMC12239973 (Science Advances, 2025).
“Also recorded” adds a separate entry of the source. Where two headings read alike, the source gives them in different places.

Assays:
human C3 deposition = assay: C3 deposition on nanoparticles in human serum, C3 dot-blot immunoassay; format: biochemical; conditions: for IC50: read-out: C3, IC50, healthy donor serum
human C5a release = assay: C5a release in the fluid phase of human serum with nanoparticles, ELISA; format: biochemical; conditions: for inhibition of C5a release: 100 μM; for IC50: read-out: C5a, IC50
C3 [1] = assay: C3 opsonization of SPIO NWs in mouse serum in vitro; format: biochemical, BALB/c mice
C3 [2] = assay: C3 opsonization of SPIO NWs in rat serum in vitro; format: biochemical, Sprague-Dawley rats; conditions: 100 μM
C3 [3] = assay: C3 opsonization of SPIO NWs in dog sera in vitro; format: biochemical; conditions: 10 μM, five breeds
C3 [4] = format: biochemical, human; conditions: for inhibition of C3 opsonization of PLD, in words: two donors with top 10th percentile anti-PEG IgG/IgM, EGTA/Mg2+ 10 mM
C3d = C3d deposition on PLD in plasma of donors with high anti-PEG titers; format: biochemical, human; conditions: two donors with high anti-PEG titers; EDTA 10 mM; EGTA/Mg2+ 10 mM; sutimlimab 200 μg/ml; iptacopan 10 μM
[5] = system: granulocytes and monocytes; format: cell-based, human; conditions: CR2-CR1 10 nM, iptacopan 20 μM; for efficacy on uptake across donors, in words: liposomes and LNPs, five donors
[6] = system: granulocytes, monocytes, lymphocytes; assay: Blood leukocyte uptake of bolus-injected SPIO NWs in mice; format: in vivo, BALB/c mice
mouse C3 = assay: In vivo C3 opsonization of SPIO NWs in mice; set-up: species or system BALB/c mice; conditions: IV iptacopan, 5 min after the injection
blood leukocytes = assay: Blood leukocyte uptake of bolus-injected SPIO NWs in rats; format: in vivo, Sprague-Dawley rats
rat C3 = assay: In vivo C3 opsonization of SPIO NWs in rats; set-up: species or system Sprague-Dawley rats; conditions: high dose iptacopan 0.99 mg/kg, 60 min postinjection
granulocytes = assay: Blood leukocyte uptake of bolus-injected SPIO NWs in dogs; format: in vivo; conditions: Beagle dogs; iptacopan 0.43 mg/kg IV coinjected with SPIO NWs 6.6 mg/kg; 30 and 60 min
dog C3 = assay: In vivo C3 opsonization of SPIO NWs in dogs; conditions: Beagle dogs; iptacopan 0.43 mg/kg IV; 30 min postinjection
Sprague-Dawley rats = assay: Rearing behavior of rats after bolus injection of SPIO NWs; format: in vivo
Beagle dogs = assay: Blood pressure in anesthetized dogs after bolus injection of SPIO NWs; format: in vivo; conditions: iptacopan IV 0.4285 mg/kg
C3 convertases = conditions: mice and dogs; cited from earlier work
C4d = C4d deposition on PLD in plasma of donors with high anti-PEG titers; format: biochemical, human; conditions: two donors with high anti-PEG titers; EGTA/Mg2+ 10 mM; sutimlimab 200 μg/ml
[7] = EDTA 10 mM, sutimlimab 200 μg/ml, iptacopan 10 μM

## CC(=O)c1nn(CC(=O)N2C[C@H](F)C[C@H]2C(=O)Nc2cccc(Br)n2)c2ccc(-c3cnc(C)nc3)cc12 [Danicopan, danicopan]
Human C3 deposition; PLD, inhibitor at 100 μM, human serum
  inhibition of C3 deposition: less than 50%
Human C3 deposition; CLIO NWs
  IC50: 10800 nM
Human C3 deposition; Onivyde
  IC50: 28100 nM
Human C3 deposition; SPIO NWs
  IC50: 417 nM
Human C5a release; mRNA LNPs, donor F46
  inhibition of C5a release: less than 60%
Human C5a release; mRNA LNPs, donors F38 and M61
  inhibition of C5a release: completely inhibited
Human C5a release; mRNA LNPs, sera from three healthy donors
  C5a IC50, in words: low micromolar
Human C5a release; CLIO NWs, human serum
  IC50: 6.93 nM
Human C5a release; Onivyde, human serum
  IC50: 2580 nM
Human C5a release; SPIO NWs, human serum
  IC50: 6.97 nM
Human C5a release; mRNA LNPs, donor F38 (table line matched to Fig. 2C)
  IC50: 1290 nM
Human C5a release; mRNA LNPs, donor F46 (table line matched to Fig. 2C)
  IC50: 7980 nM
Human C5a release; mRNA LNPs, donor M61 (table line matched to Fig. 2C)
  IC50: 71.2 nM
C3 [1]
  inhibition in mouse serum, in words: poor inhibition
C3 [2]
  inhibition of C3: less than 50%
C3 [3]
  inhibition of C3 opsonization in dog sera: considerably less effective

## O=C(O)CN(CCN(CC(=O)O)CC(=O)O)CC(=O)O [EDTA]
C3 [4]; lepirudin plasma, 10 donors, CR2-CR1 10 nM, EDTA 10 mM
  C3 on PLD blocked, on average: ~67%
C3 [4]; [7]
  inhibition of C3 opsonization of PLD, in words: only partially inhibited
C3d
  inhibition of C3d deposition on PLD, in words: full inhibition

## CCO[C@H]1CCN(Cc2c(OC)cc(C)c3[nH]ccc23)[C@H](c2ccc(C(=O)O)cc2)C1 [Iptacopan, iptacopan]
C3 [4]; [7]
  inhibition of C3 opsonization of PLD, in words: marginally effective
C3 [4]; EDTA 10 mM, sutimlimab 200 μg/ml, iptacopan 10 μM, listed as iptacopan
  inhibition of C3 opsonization of PLD, in words: minimal inhibition
C3d
  inhibition of C3d deposition on PLD, in words: only partial activity
[5]
  efficacy on uptake across donors, in words: effective in some donors
[5]; listed as iptacopan
  efficacy on uptake across donors, in words: effective in three of five donors
[5]; the one donor with measurable uptake
  reduction of SPIO NWs uptake (number of magnetic cells): ~ 60%
C3 [3]
  inhibition of C3 opsonization in dog sera: significant inhibition
[6]; IP before SPIO NWs
  iptacopan administered intraperitoneally compared with IV: equally effective
[6]; iptacopan with NWs 10 mg Fe/kg
  inhibition of uptake of SPIO NWs by monocytes and lymphocytes: partial inhibition
Mouse C3
  C3 opsonization of NWs retrieved from plasma: significantly decreased
Blood leukocytes; high-dose iptacopan 0.99 mg/kg, 60 min
  inhibition of uptake by granulocytes: significant inhibition
Blood leukocytes; iptacopan IV 0.21 mg/kg (low dose) and 0.99 mg/kg (high dose) with SPIO NWs 6.6 mg/kg, 60 min postinjection
  uptake of SPIO NWs by blood leukocytes: inhibited uptake
Rat C3
  rat C3 opsonization of NWs blocked: more than 90%
granulocytes
  number of magnetic granulocytes: significantly reduced
Dog C3
  dog C3 opsonization in the blood: significantly decreased
Sprague-Dawley rats; low or high dose of iptacopan
  rearings after coinjection with NWs: significant increase in rearings; also recorded: significantly normalized rearing behavior
Beagle dogs
  systolic and diastolic pressure after coinjection with SPIO NWs: prevents the drop in blood pressure; also recorded: restored

## CR1: human complement receptor 1 (soluble CR1 therapeutics)
C3 convertases
  efficacy in animal species: not effective

## EGTA/Mg^2+
C3 [4]; [7]
  inhibition of C3 opsonization of PLD, in words: strong inhibition
C3d
  inhibition of C3d deposition on PLD, in words: full inhibition
C4d
  inhibition of C4d deposition on PLD, in words: inhibited

## PMX53
Sprague-Dawley rats; PMX53 1 mg/kg IV, or 3 mg/kg IP + 1 mg/kg IV
  rearing behavior after coinjection with NWs: did not restore; also recorded: not significantly increased

B1: Sutimlimab: monoclonal antibody that binds C1s; classical pathway inhibitor (antibody, chains of the INN, looked up, V domains shown)
VH: EVQLVESGGGLVKPGGSLRLSCAASGFTFSNYAMSWVRQAPGKGLEWVATISSGGSHTYYLDSVKGRFTISRDNSKNTLYLQMNSLRAEDTALYYCARLFTGYAMDYWGQGTLVTVSS
VL: QIVLTQSPATLSLSPGERATMSCTASSSVSSSYLHWYQQKPGKAPKLWIYSTSNLASGVPSRFSGSGSGTDYTLTISSLQPEDFATYYCHQYYRLPPITFGQGTKLEIK
C3 [4]; lepirudin plasma, 10 donors, sutimlimab 200 μg/ml, iptacopan 10 μM
  inhibition of C3 deposition on PLD, in words: minimally effective
C3 [4]; [7]
  inhibition of C3 opsonization of PLD, in words: marginal effectiveness; also recorded: minimal inhibition
C3d
  inhibition of C3d deposition on PLD, in words: only partial activity
C4d
  inhibition of C4d deposition on PLD, in words: does not inhibit
